Measurements as given in PMC10580393, “The Psychedelic N,N-Dipropyltryptamine Prevents Seizures in a Mouse Model of Fragile X Syndrome via a Mechanism that Appears Independent of Serotonin and Sigma1 Receptors” (ACS Pharmacology & Translational Science, 2023).

What was measured:
Conditions in all cases: read-out: DPT
[1] = molecular target: T1, human 5-HT2A receptor (h5-HT2AR) (Homo sapiens, UniProt P28223); experiment: TRUPATH BRET2 G protein activation assay, HEK293T; format: cell-based
T1 construct: gene HTR2A; receptor cDNA (cDNA Resource Center) transiently expressed in HEK293T; with Rluc8-Galphaq, Gbeta3, GFP2-Ggamma9 for function
T1 sequence (P28223 whole entry): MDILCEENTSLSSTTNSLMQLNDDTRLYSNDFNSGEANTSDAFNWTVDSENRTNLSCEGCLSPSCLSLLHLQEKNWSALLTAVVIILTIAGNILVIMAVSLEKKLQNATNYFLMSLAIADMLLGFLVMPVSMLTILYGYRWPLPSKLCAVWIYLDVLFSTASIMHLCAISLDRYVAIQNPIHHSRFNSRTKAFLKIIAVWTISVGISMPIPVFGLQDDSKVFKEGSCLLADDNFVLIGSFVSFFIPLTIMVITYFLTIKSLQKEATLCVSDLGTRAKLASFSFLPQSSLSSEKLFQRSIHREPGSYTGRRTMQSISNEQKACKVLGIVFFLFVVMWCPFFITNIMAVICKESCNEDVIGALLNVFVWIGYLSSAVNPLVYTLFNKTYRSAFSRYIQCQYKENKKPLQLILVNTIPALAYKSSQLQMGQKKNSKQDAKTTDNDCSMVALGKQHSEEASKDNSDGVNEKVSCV
Source text: TRUPATH BRET2 G protein activation assay, HEK293T on human 5-HT2A receptor (h5-HT2AR)

[2] = molecular target: T2, human 5-HT1B receptor (h5-HT1BR) (Homo sapiens, UniProt P28222); experiment: TRUPATH BRET2 G protein activation assay, HEK293T; format: cell-based
T2 construct: gene HTR1B; receptor cDNA (cDNA Resource Center) transiently expressed in HEK293T; with Rluc8-Galphai3, Gbeta3, GFP2-Ggamma9 for function
T2 sequence (P28222 whole entry): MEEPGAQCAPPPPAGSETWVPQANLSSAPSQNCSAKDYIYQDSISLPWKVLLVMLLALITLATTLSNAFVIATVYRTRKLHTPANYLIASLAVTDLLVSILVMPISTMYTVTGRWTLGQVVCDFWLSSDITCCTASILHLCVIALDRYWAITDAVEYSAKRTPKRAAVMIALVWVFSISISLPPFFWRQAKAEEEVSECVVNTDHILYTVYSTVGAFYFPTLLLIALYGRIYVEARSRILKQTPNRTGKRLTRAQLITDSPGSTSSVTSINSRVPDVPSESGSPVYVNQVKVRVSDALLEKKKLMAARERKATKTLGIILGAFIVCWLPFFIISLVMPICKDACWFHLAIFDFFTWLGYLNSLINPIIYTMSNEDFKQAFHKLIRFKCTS
Source text: TRUPATH BRET2 G protein activation assay, HEK293T on human 5-HT1B receptor (h5-HT1BR)

[3] = molecular target: T3, human 5-HT1A receptor (h5-HT1AR) (Homo sapiens, UniProt P08908); experiment: radioligand competition binding, cell membranes
T3 construct: gene HTR1A; receptor cDNA (cDNA Resource Center) transiently expressed in HEK293T; with Rluc8-Galphai3, Gbeta3, GFP2-Ggamma9 for function
T3 sequence (P08908 whole entry): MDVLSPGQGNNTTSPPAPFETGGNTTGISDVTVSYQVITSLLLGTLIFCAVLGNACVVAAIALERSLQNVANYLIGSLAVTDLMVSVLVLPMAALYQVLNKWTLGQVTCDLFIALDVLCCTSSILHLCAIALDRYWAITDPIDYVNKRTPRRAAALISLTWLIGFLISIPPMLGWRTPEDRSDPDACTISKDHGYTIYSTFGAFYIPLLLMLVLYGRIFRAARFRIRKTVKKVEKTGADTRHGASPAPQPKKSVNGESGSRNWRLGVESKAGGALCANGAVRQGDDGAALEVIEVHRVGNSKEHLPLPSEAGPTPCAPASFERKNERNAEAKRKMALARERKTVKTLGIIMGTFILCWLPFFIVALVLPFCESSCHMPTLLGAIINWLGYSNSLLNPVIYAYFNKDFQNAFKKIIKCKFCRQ
Source text: radioligand competition binding, cell membranes on human 5-HT1A receptor (h5-HT1AR)

[4] = molecular target: T1, human 5-HT2A receptor (h5-HT2AR); experiment: radioligand competition binding, cell membranes
Source text: radioligand competition binding, cell membranes on human 5-HT2A receptor (h5-HT2AR)

[5] = molecular target: T3, human 5-HT1A receptor (h5-HT1AR); experiment: TRUPATH BRET2 G protein activation assay, HEK293T; format: cell-based
Source text: TRUPATH BRET2 G protein activation assay, HEK293T on human 5-HT1A receptor (h5-HT1AR)

[6] = molecular target: T2, human 5-HT1B receptor (h5-HT1BR); experiment: radioligand competition binding, cell membranes
Source text: radioligand competition binding, cell membranes on human 5-HT1B receptor (h5-HT1BR)

CCCN(CCC)CCc1c[nH]c2ccccc12 [DPT]
EC50 [1]: 451 nM
EC50 [2]: 1210 nM
Ki [3]: 1640 nM
Ki [4]: 3 nM
EC50 [5]: 2430 nM
Ki [6]: 8080 nM
